Results from patent publication US20260224524A1, “A PHARMACEUTICAL COMPOSITION TARGETING MUTANT P53 AND HER2” (DR DOZO LABORATORIES, priority 2023, published 2026).

Tested on: Human Lung Cancer Cell Line A-549
Experiment: Growth inhibition (% control growth, LC50, TGI, GI50) A-549
Format: cell-based
Details: Homo sapiens, A549, read-out: LC50, A-549; Molar drug concentrations calculated from graph
Procedure: The therapeutic effect of SA1 (peak 5) and SA2 (peak 4) is evaluated against human lung cancer cell line A-549 by calculating the percentage growth inhibition, drug concentration of test compound needed to inhibit cell growth by 50% (GI50) values.
The therapeutic effect of SACC is evaluated against human lung cancer cell line A-549 by calculating the percentage growth inhibition, drug concentration of test compound needed to inhibit cell growth by 50% (GI50) values.

Structure (SMILES): COc1cccc2c1C(=O)c1c(O)c3c(c(O)c1C2=O)C[C@@](O)(C(=O)CO)C[C@@H]3O[C@H]1C[C@H](N)[C@H](O)[C@H](C)O1 [ADR, Adriamycin]
- LC50: 143 µM
